Assay in all cases: growth of human tumour cells (NCI), 48 h
The subject of assay [1] is HL-60(TB) leukemia.
Assay [2] has as its system MOLT-4 leukemia.
Assay [3] has as its system OVCAR-8 ovarian.
The test system of assay [4] is SN12C renal.
Assay [5] deals with SNB-75 CNS.
The test system of assay [6] is SR leukemia.
Assay [7] has as its system HS 578T breast.
Assay [8] concerns MDA-MB-435.
Assay [9] relates to PC-3 prostate.
Assay [10] has as its system T-47D breast.

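Exposure lasted 48 hours, with cells grown in 96-well plates and compounds tested at five concentrations. At the GI50, growth is halved. TGI denotes the concentration required for complete inhibition of growth.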 Bounds are passed on as bounds.

On to `C=CCC12CC(=O)CCC1c1ccc(OC)cc1C2=O` (stereo unspecified), for which the TGI in assay [1], in assay [2], in assay [3], in assay [4], in assay [5] and in assay [6] was over 100 µM each time.

On to `CC(=O)OCC1OC(n2c(=O)[nH]c(=O)c3n[nH]nc32)C(OC(C)=O)C(OC(C)=O)C1OC(C)=O` (stereo unspecified), for which the TGI in [1], in [2], in assay [3], in assay [4] and in assay [6] was over 100 µM each time.

As for `Brc1cc(C2OCCCO2)ccc1OCc1ccccc1`, the TGI in assay [1], in assay [2], in assay [3], in assay [4] and in [5] was over 100 µM each time.

Regarding `O=c1cc[nH]cc1-c1c[nH]ccc1=O`, the TGI in assay [1], in assay [2], in [3], in assay [4] and in [5] was over 100 µM throughout.

Turning to `CCOC(=O)c1sc2c(C(=O)OCC)n3cc(C)cc(C)c3c2c1O`, the TGI in assay [2], in assay [3], in assay [4], in [5] and in assay [6] was over 100 µM in each case.

For the molecule `CCOC(=O)c1c(-c2ccccc2)[n+](=O)c2cc(F)c(F)cc2n1[O-]`, the GI50 in assay [1] was 717 nM; in [7], 2.38 µM; in assay [8], 1930 nM; in assay [2], 0.415 µM; in [3], 2.06 µM; in assay [9], 1650 nM. Besides, the GI50 in assay [5] was 1.75 µM; in [6] it was 0.187 µM. For the same molecule, the TGI in [1] is 3.77 µM; in assay [7], 6.26 µM; in assay [8], 3.6 µM; in assay [2], over 100 µM; in [3] it was 4.43 µM; in assay [9], 3.16 µM. The TGI is 3.64 µM in assay [5] and over 100 µM in assay [6].

As to `CC(C)[P+](c1ccccc1)(c1ccccc1)c1ccccc1`, the GI50 in assay [1] was 2240 nM; in assay [7], 13.4 µM; in [8] it was 2650 nM; in assay [2], 6.9 µM; in assay [3], 4.42 µM; in assay [9], 2420 nM. The GI50 in [4] is 11.5 µM; in assay [5], 4.81 µM; in assay [6], 3.05 µM. Further, the TGI in [1] is 7.5 µM; in assay [7] it was over 100 µM; in assay [8], 25.3 µM; in assay [2], over 100 µM; in assay [3], over 100 µM; in [9], 34.6 µM. For the same molecule, the TGI in assay [4] was over 100 µM; in assay [5], 66 µM; in [6], over 100 µM.

Consider `COC(=O)C(=O)C(C(=O)C(=O)Nc1ccccc1[N+](=O)[O-])c1nc2ccc([N+](=O)[O-])cc2[nH]c1=O` (stereo unspecified), for which the TGI in [1], in assay [2], in assay [3], in [4], in [5] and in assay [6] was over 100 µM throughout.

As to `CCCC(O)c1cn(-c2cccc(S(=O)(=O)O)c2)nn1` (stereo unspecified), the TGI in assay [1], in [2], in [3], in [4] and in assay [5] was over 100 µM each time.

In the case of `COc1ccc(-c2cc3ccccc3[nH]c2=O)cc1OC`, the TGI in assay [1], in assay [2], in assay [3], in [4], in assay [5] and in [6] was over 100 µM each time.

In the case of `CS(=O)(=O)c1ccc(COP(N)(=O)N(CCCl)CCCl)cc1` (stereo unspecified), the TGI in assay [2], in assay [3], in assay [4], in [5] and in [6] was over 100 µM in each case.

For `Cc1cc(=O)[nH]c(NNC(C#N)c2ccccc2O)n1` (stereo unspecified), the TGI in [1] is 50.5 µM; in assay [2], over 100 µM; in assay [3], over 100 µM; in assay [4], over 100 µM; in assay [5] it was over 100 µM; in [6], over 100 µM.

In the case of `COc1cc(C2c3cc4c(cc3OC(O)C2C)OCO4)cc(OC)c1OC` (stereo unspecified), the TGI in assay [1] is 0.503 µM; in [7], over 100 µM; in [8] it was 0.156 µM; in [2], over 31.9 µM; in [3], over 20.5 µM; in assay [9] it was over 100 µM. Besides, the TGI in [4] is over 65 µM; in assay [5], 4.93 µM.

Turning to `CC(C)N(C(=O)C12C3C4C5(C(=O)O)C(C1C35I)C42C(=O)O)C(C)C` (stereo unspecified), the TGI in assay [1], in [2], in assay [3], in assay [4], in assay [5] and in [6] was over 100 µM each time.

Regarding `COc1ccc(NC(=O)CC(=O)N/N=C(\C)c2cc3ccccc3oc2=O)cc1`, the TGI in [1], in assay [2], in [3], in assay [4] and in [5] was over 100 µM throughout.

In the case of `CN1CCN=C1c1nnn(-c2ccc([N+](=O)[O-])cc2)c1-c1ccccc1`, the TGI was 61.4 µM in [1]; over 100 µM in assay [2]; over 100 µM in [3]; over 100 µM in assay [4]; over 100 µM in assay [5]; over 100 µM in assay [6].

As for `CCC(C)(O)c1cn(-c2ccc(Cl)cc2)nn1` (stereo unspecified), the TGI in [1], in assay [2], in [3], in assay [4], in [5] and in assay [6] was over 100 µM throughout.

For the molecule `O=C(O)c1c2c(cc3c(=O)c4ccccc4[nH]c13)CCCC2`, the TGI in assay [1], in assay [2], in assay [3], in [4], in assay [5] and in [6] was over 100 µM throughout.

Turning to `CC1CCCC(C#N)(NOC2=NCCN2)C1` (stereo unspecified), the GI50 in assay [1] was 16800 nM; in assay [7] it was 52.3 µM; in [8] it was 35400 nM; in [2] it was 10.7 µM; in [3], 41 µM; in assay [9], over 100000 nM. For the same molecule, the GI50 was 26.5 µM in assay [4], 40.3 µM in assay [5] and 7.87 µM in assay [6]. The TGI in [1] was 93 µM; in [7], over 100 µM; in assay [8], over 100 µM; in [2], over 100 µM; in assay [3], over 100 µM; in assay [9], over 100 µM. Further, the TGI in assay [4], in [5] and in assay [6] was over 100 µM in each case.

Regarding `O=C1C(Cl)=C(Cl)C(=O)N1c1ccc(Cl)c(Cl)c1Cl`, the TGI was 46.2 µM in [1]; over 100 µM in [2]; over 100 µM in [4]; over 100 µM in assay [5]; 68 µM in assay [6].

As to `COC(=O)/C(C#N)=C1\CCC(OC)N1C` (stereo unspecified), the TGI in assay [1], in assay [2], in assay [3], in [4] and in [5] was over 100 µM each time.

For `Cc1ccc(N2C(=O)/C(=C/c3ccc(N(CCC#N)CCC#N)cc3)N=C2COc2ccc(Cl)cc2Cl)cc1`, the TGI in [1], in [2], in [3], in assay [4], in assay [5] and in assay [6] was over 100 µM throughout.

For `COc1cc2c(cc1OC)C(C(CBr)CBr)N(C1CCCC1)CC2` (stereo unspecified), the TGI in assay [1], in [2], in assay [3], in assay [5] and in assay [6] was over 100 µM throughout.

For the molecule `CC(/C=C/C(=O)c1sc(C(N)=S)nc1C)=C\c1ccccc1`, the TGI was over 100 µM in [1]; over 100 µM in assay [2]; over 100 µM in assay [3]; over 100 µM in assay [4]; over 100 µM in [5]; 98 µM in assay [6].

With `COc1cc(OC)c2c(=O)cc(-c3ccccc3OCc3ccccc3)oc2c1OC`, the GI50 in assay [1] was over 100000 nM; in assay [8], 2680 nM; in assay [3], over 100 µM; in assay [9], 3340 nM; in assay [4], 20.4 µM; in [5], 61.8 µM. In addition, the GI50 in assay [10] was 18.7 µM. The TGI in assay [1] is over 100 µM; in assay [8], 7.01 µM; in [3], over 100 µM; in [9], 32.5 µM; in [4], over 100 µM; in assay [5], over 100 µM. Further, the TGI in assay [10] was over 100 µM.

On to `COc1cc(Cc2c(C)cc(OC)c3[nH]c4ccccc4c23)cc2c1[nH]c1ccccc12`, for which the GI50 was 7950 nM in assay [1], 5.69 µM in [2], 6.4 µM in assay [4] and 7.77 µM in assay [6]. The TGI in assay [1] was over 25 µM; in assay [2] it was over 25 µM; in [3], 10.9 µM; in assay [4], 22.8 µM; in assay [6] it was over 25 µM.

On to `Cc1ccccc1-n1c(=S)[nH]c2c(sc(=O)n2-c2ccccc2C)c1=O`, for which the TGI in assay [1], in assay [2], in [3], in [4], in [5] and in [6] was over 100 µM throughout.

On to `O=C1OC(=O)C23CSCC12C1C=CC3O1` (stereo unspecified), for which the TGI in [1], in assay [2], in [3], in assay [4] and in assay [5] was over 100 µM in each case.

For `COc1ccc(N2C(=O)[C@@H](N=[N+]=[N-])[C@@H]2[C@H]2COC(C)(C)O2)cc1`, the TGI in assay [1], in assay [2], in assay [3], in [4], in assay [5] and in assay [6] was over 100 µM in each case.

On to `CCC1CCCCN1CC(C(C)=O)C(c1ccccc1)c1c(O)c2ccccc2oc1=O` (stereo unspecified), for which the TGI in assay [1], in assay [2], in [3], in [4], in assay [5] and in assay [6] was over 100 µM each time.

As to `O=C1OCC2=C1C(c1cccc(C(F)(F)F)c1)c1cc3c(cc1N2CCO)OCCO3` (stereo unspecified), the GI50 was 875 nM in assay [1]; 0.915 µM in assay [7]; 1.93 µM in assay [2]; 1.29 µM in [3]; 1240 nM in [9]; 2.21 µM in assay [4]. Also, the GI50 in assay [6] is 1.04 µM. For the same molecule, the TGI in [1] was 2.44 µM; in assay [7] it was over 33.3 µM; in [2], over 33.3 µM; in assay [3], over 33.3 µM; in assay [9] it was over 33.3 µM; in [4] it was over 33.3 µM. Moreover, the TGI in [6] is over 33.3 µM.

As for `O=[N+]([O-])c1cc(/C=N\NS(=O)(=O)c2ccc(Cl)cc2)c(O)c([N+](=O)[O-])c1`, the TGI came out at 54 µM in assay [1]; 86 µM in assay [2]; 64.5 µM in assay [3]; 87.4 µM in assay [4]; 73.5 µM in assay [5]; 45.2 µM in assay [6].

`CCOC(=O)[C@@]12C(C)=CC(=O)O[C@]1(C)C1C(=O)NC(=O)C12` (stereo partly specified): the TGI in [1], in assay [2], in [3] and in [5] was over 100 µM throughout.

Regarding `O=C(c1ccccc1)c1nnn(Cc2ccccc2Cn2nnc(C(=O)c3ccccc3)c2C(=O)c2ccccc2)c1C(=O)c1ccccc1`, the TGI in assay [1], in [2], in assay [3], in [4], in [5] and in [6] was over 100 µM throughout.

The record behind these values is PubChem BioAssay (NCI).
